Data as given in patent US20120053165A1, “Novel Phenyl Imidazoles and Phenyl Triazoles As Gamma-Secretase Modulators” (Pfizer Inc., priority 2009, published 2012).
Structures can show the parent of a compound that is named as a salt.

system: production of amyloid beta protein Aβ(1-42) in human WT-APP overexpressing CHO cells; conditions: Homo sapiens, CHO, read-out: Aβ 42 IC50, Geometric mean of 2-8 determinations; human WT-APP overexpressing CHO cells
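Also: Aβ(1-42) released into conditioned medium captured by ELISA after roughly 24 h compound exposure, vehicle and inhibitor controls defining maximal and minimal inhibition.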
Procedure: Cell-Based γ-Secretase Assay with ELISA Readout
The ability of compounds to modulate production of amyloid beta protein Aβ(1-42) was determined using human WT-APP overexpressing CHO cells. Cells were plated at 22,000 cells/100 μL well in 96 well tissue culture treated, clear plates (Falcon) in DMEM/F12 based medium and incubated for 24 hours at 37° C. […] Compounds were added in fresh medium to achieve 1% final DMSO. Appropriate vehicle and inhibitor controls were added to obtain maximum and minimum inhibition values for the assay before the plates were incubated for about 24 hours at 37° C.
Coating of ELISA assay plates was initiated by addition of 50 μL/well of an in house Aβ(1-42) specific antibody at (4 μg/mL) in 0.1 M NaHCO3 (pH 9.0) into black 384-well Maxisorp® plates (Nunc) and incubated overnight at 4° C. […] Ambient temperature incubation was allowed to proceed for a minimum of two hours before washing 2×100 μL with Wash Buffer (Dulbecco's PBS, 0.05% Tween 20). Assay Buffer (Dulbecco's PBS, 1.0% BSA (Sigma A7030), 0.05% Tween 20) 20 μL/well is then added.
After incubation overnight at 37° C., 5% CO2, 40 μL (in duplicate) of experimental conditioned media are transferred into wells of the blocked ELISA plates containing the capture antibody, followed by overnight incubation at 4° C.
After overnight incubation of the ELISA assay plates at 4° C., unbound Aβ peptides were removed thorough (4×100 μL) washes with Wash Buffer.

Row | Molecule | IC50 [nM]
1 | COc1cc(C(=O)N[C@@H]2CCC[C@@H]2c2ccc(F)cc2)ccc1-n1cnc(C)c1 [Example 115, N-[(1R,2R)-2-(4-fluorophenyl)cyclopentyl]-3-methoxy-4-(4-methyl-1H-imidazol-1-yl)benzamide] | 798
2 | COc1cc(C(=O)NCc2cc(-c3ccc(F)cc3)on2)ccc1-n1cnc(C)c1 [Example 116, N-{[5-(4-fluorophenyl)isoxazol-3-yl]methyl}-3-methoxy-4-(4-methyl-1H-imidazol-1-yl)benzamide] | 815
3 | COc1cc(C(=O)N2CCC(Oc3cccc(C(F)(F)F)c3)CC2)ccc1-n1cnc(C)c1 [Example 119, 1-[3-methoxy-4-(4-methyl-1H-imidazol-1-yl)benzoyl]-4-[3-(trifluoromethyl)phenoxy]piperidine] | 847
4 | COc1cc(C(=O)NCC2COc3ccccc3C2)ccc1-n1cnc(C)c1 (centres unmarked) [Example 122, N-(3,4-dihydro-2H-chromen-3-ylmethyl)-3-methoxy-4-(4-methyl-1H-imidazol-1-yl)benzamide] | 976
5 | CCOc1cc(C)c(CN(C(=O)c2ccc(-n3cnc(C)c3)c(OC)c2)C2CC2)cc1C(C)C [Example 124, N-cyclopropyl-N-(4-ethoxy-5-isopropyl-2-methylbenzyl)-3-methoxy-4-(4-methyl-1H-imidazol-1-yl)benzamide] | 114
6 | COc1cc(C(=O)N[C@H]2CCc3ccc(Cl)cc32)ccc1-n1cnc(C)c1 [Example 129, N-[(1S)-6-chloro-2,3-dihydro-1H-inden-1-yl]-3-methoxy-4-(4-methyl-1H-imidazol-1-yl)benzamide] | 605
7 | COc1cc(C(=O)NC2COc3ccc(C(F)(F)F)cc32)ccc1-n1cnc(C)c1 (centres unmarked) [Example 130, 3-methoxy-4-(4-methyl-1H-imidazol-1-yl)-N-[5-(trifluoro-methyl)-2,3-dihydro-1-benzofuran-3-yl]benzamide] | 666
8 | COc1cc(C(=O)N2CC(COc3ccccc3C(F)(F)F)C2)ccc1-n1cnc(C)c1 [Example 131, 1-{2-methoxy-4-[(3-{[2-(trifluoro-methyl)phenoxy]methyl}azetidin-1-yl)carbonyl]phenyl}-4-methyl-1H-imidazole] | 311
9 | COc1cc(C(=O)N2CCC(COc3ccccc3C(F)(F)F)C2)ccc1-n1cnc(C)c1 (centres unmarked) [Example 132, 1-{2-methoxy-4-[(3-{[2-(tri-fluoromethyl)phenoxy]methyl}pyrrolidin-1-yl)carbonyl]phenyl}-4-methyl-1H-imidazole] | 472
10 | COc1cc(C(=O)N2CC(COc3cccc(C(F)(F)F)c3)C2)ccc1-n1cnc(C)c1 [Example 133, 1-{2-methoxy-4-[(3-{[3-(trifluoromethyl)phenoxy]methyl}azetidin-1-yl)carbonyl]phenyl}-4-methyl-1H-imidazole] | 496
11 | COc1cc(C(=O)N2CCCC2COc2ccccc2C(F)(F)F)ccc1-n1cnc(C)c1 (centres unmarked) [Example 134, 1-{2-methoxy-4-[(2-{[2-(tri-fluoromethyl)phenoxy]methyl}pyrrolidin-1-yl)carbonyl]phenyl}-4-methyl-1H-imidazole] | 675

same assay, conditions: Homo sapiens, CHO, read-out: Aβ 42 IC50, Geometric mean of at least 2 determinations; human WT-APP overexpressing CHO cells

Row | Molecule | IC50 [nM]
12 | COc1cc(C(=O)N2CC(COc3cccc4ccccc34)C2)ccc1-n1cnc(C)c1 [Example 135, 1-[2-methoxy-4-({3-[(1-naphthyloxy)methyl]azetidin-1-yl}carbonyl)phenyl]-4-methyl-1H-imidazole trifluoroacetate salt] | 111
13 | COc1cc(C(=O)N2CC(COc3ccc(F)c(C)c3Cl)C2)ccc1-n1cnc(C)c1 [Example 136, 1-[4-({3-[(2-chloro-4-fluoro-3-methyl-phenoxy)methyl]azetidin-1-yl}carbonyl)-2-methoxyphenyl]-4-methyl-1H-imidazole trifluoroacetate salt] | 311
14 | COc1cc(C(=O)N2CC(COc3cccc4c3CCC4)C2)ccc1-n1cnc(C)c1 [Example 137, 1-[4-({3-[(2,3-dihydro-1H-inden-4-yloxy)methyl]azetidin-1-yl}carbonyl)-2-methoxyphenyl]-4-methyl-1H-imidazole trifluoroacetate salt] | 411
15 | CCc1cc(F)ccc1OCC1CN(C(=O)c2ccc(-n3cnc(C)c3)c(OC)c2)C1 [Example 138, 1-[4-({3-[(2-ethyl-4-fluorophenoxy)methyl]azetidin-1-yl}carbonyl)-2-methoxyphenyl]-4-methyl-1H-imidazole trifluoroacetate salt] | 537
16 | CCc1ccccc1OCC1CN(C(=O)c2ccc(-n3cnc(C)c3)c(OC)c2)C1 [Example 140, 1-[4-({3-[(2-ethylphenoxy)methyl]azetidin-1-yl}carbonyl)-2-methoxyphenyl]-4-methyl-1H-imidazole trifluoroacetate salt] | 593

same assay, conditions: Homo sapiens, CHO, read-out: Aβ 42 IC50, Single IC50 determination; human WT-APP overexpressing CHO cells

Row | Molecule | IC50 [nM]
17 | COc1ccc2c(c1)CCC2NC(=O)c1ccc(-n2cnc(C)c2)c(OC)c1 (centres unmarked) [Example 120, 3-methoxy-N-(5-methoxy-2,3-dihydro-1H-inden-1-yl)-4-(4-methyl-1H-imidazol-1-yl)benzamide] | 878

same assay, conditions: read-out: Aβ 42 IC50; Geometric mean of 2-8 determinations; human WT-APP overexpressing CHO cells

Row | Molecule | IC50 [nM]
18 | COc1cc(C(=O)NCCc2c(C)[nH]c3ccccc23)ccc1-n1cnc(C)c1 [Example 117, 3-methoxy-4-(4-methyl-1H-imidazol-1-yl)-N-[2-(2-methyl-1H-indol-3-yl)ethyl] benzamide] | 828
19 | COc1cc(C(=O)N(C)Cc2cccc3ccccc23)ccc1-n1cnc(C)c1 [Example 118, 3-methoxy-N-methyl-4-(4-methyl-1H-imidazol-1-yl)-N-(1-naphthylmethyl) benzamide] | 837
20 | COc1cc(C(=O)NCCc2nc3cc(C)ccc3o2)ccc1-n1cnc(C)c1 [Example 121, 3-methoxy-N-[2-(5-methyl-1,3-benzoxazol-2-yl)ethyl]-4-(4-methyl-1H-imidazol-1-yl) benzamide] | 880
21 | COc1cc(C(=O)N(Cc2cc(-c3ccccc3)ccc2C)C2CC2)ccc1-n1cnc(C)c1 [Example 123, N-cyclopropyl-3-methoxy-N-[(4-methylbi-phenyl-3-yl)methyl]-4-(4-methyl-1H-imidazol-1-yl) benzamide] | 73
22 | COc1cc(C(=O)N(Cc2cc(C(C)C)ccc2C)C2CC2)ccc1-n1cnc(C)c1 [Example 125, N-cyclopropyl-N-(5-isopropyl-2-methylbenzyl)-3-methoxy-4-(4-methyl-1H-imidazol-1-yl) benzamide] | 185
23 | COc1cc(C(=O)N[C@@H](C)c2cccc(-c3ccccc3)c2)ccc1-n1cnc(C)c1 [Example 126, N-[(1S)-1-biphenyl-3-ylethyl]-3-methoxy-4-(4-methyl-1H-imidazol-1-yl) benzamide] | 492
24 | N-[2-(4-fluoro- phenyl)-1,1- dimethylethyl]- 3-methoxy-4- (4-methyl-1H- imidazol-1-yl) benzamide [Example 37] | 519
25 | N-[3-(3- chlorophenyl) propyl]-3- methoxy-4-(4- methyl-1H- imidazol-1-yl) benzamide [Example 46] | 579
26 | N-{[3-(3- chlorophenyl)- 4,5-dihydro- isoxazol-5-yl] methyl}-3- methoxy-4- (4-methyl-1H- imidazol-1-yl) benzamide [Example 12] | 1310
